# Source: the OPERA property sets (Mansouri et al. 2018)
# Conditions: for log10 biotransformation half-life (days) / log10 BCF: fish
smiles,measurement,value
CC(=O)OC(OC(C)=O)c1ccco1,boiling point,220 °C
same,melting point,53.3 °C
CCC(=O)Nc1cc(N(CCOC(C)=O)CCOC(C)=O)ccc1N=Nc1ccc([N+](=O)[O-])cc1Cl,ready biodegradability,not readily biodegradable
OCCCCCCCCCCl,melting point,28 °C
CCc1ccc(O)cc1,boiling point,218 °C
same,log10 Henry constant (atm·m³/mol),-6.11
same,log10 vapour pressure (mmHg),-1.43
same,melting point,45 °C
same,ready biodegradability,readily biodegradable
C#CCC1CCCCC1,boiling point,158 °C
O=C(O)C(F)Cl (stereo not given),boiling point,162 °C
C=C1C[C@@H]1C[C@H](N)C(=O)O,melting point,282 °C
CCOC(=O)C=Cc1ccccc1,boiling point,271 °C
same,log10 vapour pressure (mmHg),-2.49
same,melting point,7 °C
N#Cc1ccncc1C#N,melting point,80 °C
CC1(C)CC[C@]2(C)CC[C@]3(C)C(=CC[C@@H]4[C@@]5(C)CC[C@H](O)C(C)(C)[C@@H]5CC[C@]43C)[C@@H]2C1,melting point,197 °C
CN1CCC(O)CC1,boiling point,200 °C
same,melting point,29 °C
CC1(O)CCC(C(C)(C)O)CC1 (stereo not given),melting point,158 °C
CC(C)N(Cc1ccccc1)C(=O)C(C)(C)C,log10 vapour pressure (mmHg),-3.18
ClCCCCCCCCCCl,boiling point,260 °C
CC(C)c1cccc(O)c1,boiling point,228 °C
same,log10 vapour pressure (mmHg),-1.16
same,melting point,26 °C
CCCCCCCCCCCCCC(N)=O,melting point,104 °C
CC(C)(C)c1cc(Cc2cc(C(C)(C)C)c(O)c(C(C)(C)C)c2)cc(C(C)(C)C)c1O,ready biodegradability,not readily biodegradable
Cc1cc(Cl)c(Cl)c(Cl)c1,boiling point,246 °C
same,melting point,45.5 °C
CC/C=C\CO,boiling point,138 °C
CCCCC(C)(C)CC,boiling point,137 °C
CCC(C)Br (stereo not given),boiling point,91.2 °C
same,log10 vapour pressure (mmHg),1.76
same,melting point,-112 °C
NNc1c(F)c(F)cc(F)c1F,melting point,92 °C
O=S1(=O)CCCO1,melting point,31.5 °C
same,ready biodegradability,readily biodegradable
CCCCCCCCCCCCCCCCCCCCCCCCCC(=O)O,melting point,88.5 °C
CC(=O)CC(=O)Nc1ccccc1Cl,melting point,105 °C
C=CCC1(CC(C)C)C(=O)NC(=O)NC1=O,melting point,138 °C
Cc1ccoc1,boiling point,66 °C
O=[N+]([O-])C(Br)(CO)CO,melting point,132 °C
same,ready biodegradability,not readily biodegradable
C#CCCCCCCC(=O)O,melting point,19 °C
O=[N+]([O-])c1cccc2cnccc12,melting point,110 °C
FC(F)(F)C#CC(F)(F)F,boiling point,-24.6 °C
same,melting point,-117 °C
COC(=O)C(F)(F)C(F)(F)F,boiling point,59.5 °C
CN1[C@@H]2CC[C@H]1C[C@@H](OC(=O)C(O)c1ccccc1)C2 (mixture of isomers),melting point,99.5 °C
Cc1cc(N(C)C)ccc1N=Nc1ccccc1,melting point,68 °C
CCOC(=O)c1ccc(-c2ccc(C(=O)OCC)c(C(=O)OCC)c2)cc1C(=O)OCC,ready biodegradability,readily biodegradable
CCCCCCCCCCC,boiling point,196 °C
same,log10 biodegradation half-life (days),0.845
same,log10 vapour pressure (mmHg),-0.385
same,melting point,-25.6 °C
same,ready biodegradability,readily biodegradable
CCOC(=O)[C@@H](C)Br,boiling point,160 °C
Cc1cc(C)n(C)n1,boiling point,170 °C
O=C1CCCCCCCCC1O (stereo not given),melting point,42 °C
C[C@H](N)Cc1ccccc1,boiling point,203 °C
CCCCOC(=O)Nc1ccccc1,log10 Koc (L/kg),2.26
Clc1sc(Cl)c(Cl)c1Cl,boiling point,233 °C
same,melting point,30.5 °C
CC(=O)CC(=O)Nc1ccc(C)cc1,ready biodegradability,readily biodegradable
C=CCCCCCCCCCCC,boiling point,233 °C
same,log10 vapour pressure (mmHg),-1.2
same,melting point,-13 °C
same,log10 biotransformation half-life (days),0.73
CC(C)=CCC/C(C)=C/C=C/C(C)=C/C=C/C(C)=C/C=C/C=C(C)/C=C/C=C(C)/C=C/C=C(\C)CCCC(C)(C)O,melting point,171 °C
Nc1cccc2c1C(=O)c1ccccc1C2=O,log10 vapour pressure (mmHg),-8.3
same,melting point,254 °C
same,ready biodegradability,not readily biodegradable
same,log10 BCF,1.98
same,log10 biotransformation half-life (days),-0.59
Cl.NCCc1c[nH]c2ccccc12,melting point,255 °C
CCCSC(C)C,boiling point,132 °C
C#C[C@]1(O)CC[C@H]2[C@@H]3CCC4=CCCC[C@@H]4[C@H]3C(=C)C[C@@]21CC,melting point,110 °C
CCCCCCCCCc1cccc2ccccc12,boiling point,366 °C
same,melting point,8 °C
Brc1cc(Br)c(Oc2c(Br)c(Br)c(Br)c(Br)c2Br)c(Br)c1Br,log10 BCF,5.75
CCCCC=CC(=O)O,boiling point,226 °C
same,melting point,-19 °C
FC1(F)OC1(F)F,boiling point,-63.5 °C
same,melting point,-118 °C
CC(C)=C1CCCC(C)C1 (stereo not given),boiling point,174 °C
NC(N)=Nc1nc(CSCCC(N)=NS(N)(=O)=O)cs1,melting point,164 °C
CCCO[Si](OCCC)(OCCC)OCCC,boiling point,226 °C
CCNC(=S)NCC,melting point,78 °C
Cc1cc(Cc2cc(C)cc(C(C)(C)C)c2O)c(O)c(C(C)(C)C)c1,melting point,123 °C
same,ready biodegradability,not readily biodegradable
same,log10 BCF,2.74
same,log10 biotransformation half-life (days),0.03
COc1ccc(C(=O)c2ccccc2)cc1,boiling point,355 °C
same,melting point,61.5 °C
Clc1ccccc1-c1ccccc1,boiling point,274 °C
same,log10 Henry constant (atm·m³/mol),-3.13
same,log10 Koc (L/kg),3.47
same,log10 vapour pressure (mmHg),-2.86
same,melting point,34 °C
O=[N+]([O-])c1ccc2[nH]cnc2c1,melting point,208 °C
same,ready biodegradability,not readily biodegradable
same,log10 BCF,0.4
same,log10 biotransformation half-life (days),-1.15
Cc1ccnc(NS(=O)(=O)c2ccc(N)cc2)n1,melting point,236 °C
C=C[Si](C)(C)OCC,boiling point,99 °C
FCCCCBr,boiling point,135 °C
CN1CC(C(=O)O)CC1=O (stereo not given),melting point,152 °C
ClCC(Cl)Cl,boiling point,114 °C
same,log10 Henry constant (atm·m³/mol),-3.08
same,log10 Koa,3.4
same,log10 Koc (L/kg),1.89
same,log10 vapour pressure (mmHg),1.36
same,melting point,-36.6 °C
same,ready biodegradability,not readily biodegradable
same,log10 BCF,0.7
same,log10 biotransformation half-life (days),-1.01
CC1(c2ccccc2)C(=O)NC(=O)NC1=O,melting point,220 °C
Cc1ccsc1Br,boiling point,176 °C
CCNNCC,boiling point,85.5 °C
same,log10 Koc (L/kg),1.18
CCOC(=O)Nc1cccc(OC(=O)Nc2ccccc2)c1,log10 Koc (L/kg),3.18
same,log10 vapour pressure (mmHg),-8.52
same,melting point,120 °C
CC1(C)C(=O)Nc2ccccc21,boiling point,300 °C
same,melting point,154 °C
CC(C)CCCO,boiling point,152 °C
Cc1cc(C2CC2)nc(Nc2ccccc2)n1,log10 vapour pressure (mmHg),-5.43
same,melting point,75.9 °C
C=CC1CCC(O)C(O)C1 (stereo not given),ready biodegradability,not readily biodegradable
Brc1cccc(Oc2ccccc2)c1,log10 Koa,7.36
Oc1cc(F)cc(F)c1F,melting point,29 °C
CCOP(=S)(OCC)SCSc1ccc(Cl)cc1,log10 Koc (L/kg),4.66
same,log10 vapour pressure (mmHg),-6.52
CCCCCCCCC=CCCCCCCCC(=O)OCCS(=O)(=O)[O][Na],ready biodegradability,readily biodegradable
C[N+]1(C)CCCCC1,log10 Koc (L/kg),6
Ic1ccc(I)cc1,boiling point,285 °C
same,melting point,132 °C
CC(Oc1c(Cl)cccc1Cl)C1=NCCN1 (stereo not given),melting point,127 °C
CCOP(=S)(OCC)Oc1ccc(S(C)=O)cc1 (stereo not given),log10 Koc (L/kg),2.52
same,log10 vapour pressure (mmHg),-4.3
Oc1c(Cl)cccc1-c1ccccc1,melting point,6 °C
CCCC=C(C)C,boiling point,95.4 °C
same,log10 vapour pressure (mmHg),1.73
same,melting point,-130 °C
CCOP(=O)(NC(C)C)Oc1ccc(S(C)(=O)=O)c(C)c1 (stereo not given),log10 Koc (L/kg),1.64
CCCCCCNC(=O)c1ccc(O)c(O)c1,melting point,140 °C
Nc1cccc(Cl)c1,boiling point,230 °C
same,log10 Henry constant (atm·m³/mol),-6
same,log10 vapour pressure (mmHg),-1.18
same,melting point,-10.4 °C
same,ready biodegradability,not readily biodegradable
same,log10 BCF,0.35
same,log10 biotransformation half-life (days),-0.71
Cc1ccccc1C(N)=O,melting point,147 °C
NCCCCCCO,log10 vapour pressure (mmHg),-2.62
same,melting point,57 °C
CC/C=C/CCCCC,boiling point,148 °C
CN1C(=O)CCC1=O,boiling point,234 °C
same,melting point,71 °C
CC(CCCC(=O)O)C(=O)O (stereo not given),melting point,64 °C
O=COCCOC=O,boiling point,174 °C
c1cc2c3c(c4ccc5ccccc5c4cc3c1)CC2,melting point,174 °C
CC(=O)Cc1c[nH]c2ccccc12,melting point,116 °C
C=C(C)CCC,boiling point,62.1 °C
same,log10 vapour pressure (mmHg),2.29
COC(=O)CCCC(=O)OC,boiling point,214 °C
same,log10 vapour pressure (mmHg),-0.745
same,melting point,-42.5 °C
same,ready biodegradability,readily biodegradable
CC(=O)NCc1c(I)c(NC(C)=O)c(I)c(C(=O)O)c1I,melting point,255 °C
CN(C)[C@@H]1C(O)=C(C(N)=O)C(=O)[C@@]2(O)C(O)=C3C(=O)c4c(O)cccc4[C@@](C)(O)[C@H]3C[C@@H]12.Cl,melting point,222 °C
COc1ccccc1CC(=O)O,melting point,124 °C
CCO[Si](Cl)(OCC)OCC,boiling point,156 °C
same,melting point,-51 °C
C=C(C)[C@H]1Cc2c(ccc3c2O[C@@H]2COc4cc(OC)c(OC)cc4[C@@H]2C3=O)O1,log10 Koc (L/kg),4
same,melting point,176 °C
same,log10 BCF,1.41
same,log10 biotransformation half-life (days),-0.59
CCc1ccc(OC)cc1,boiling point,198 °C
Clc1ccc2c(Cl)c(Cl)cc(Cl)c2c1,log10 Koa,8.08
Brc1cc(Br)c(Oc2c(Br)c(Br)c(Br)c(Br)c2Br)c(Br)c1,log10 BCF,5.75
Clc1ccc(C(c2ccccc2Cl)C(Cl)Cl)cc1 (stereo not given),log10 vapour pressure (mmHg),-5.71
same,melting point,77 °C
same,log10 biotransformation half-life (days),1.65
O=NN(CCO)CCO,ready biodegradability,readily biodegradable
CCCCCC(=O)OCCC(C)C,boiling point,226 °C
Fc1ccc(Br)cc1Br,melting point,69 °C
CN1C(=O)C=CC1=O,melting point,95 °C
CCOC(=O)c1ccc(C(=O)OCC)cc1,boiling point,302 °C
same,melting point,44 °C
Cc1cc(C)c2cc(C)ccc2c1,melting point,12 °C
Cc1nnc(-c2ccccc2)c(=O)n1N,log10 Koc (L/kg),2.17
same,log10 vapour pressure (mmHg),-8.19
C[C@]12CCC(=O)C=C1CC[C@@H]1[C@@H]2CC[C@@]2(C)[C@H]1CC[C@]2(O)C(=O)CO,melting point,215 °C
CCOC(=O)C1CCCCC1,boiling point,196 °C
ClC(Cl)=C(c1ccc(Cl)cc1)c1ccc(Cl)cc1,boiling point,336 °C
same,log10 Henry constant (atm·m³/mol),-4.38
same,log10 Koa,9.68
same,log10 Koc (L/kg),4.82
same,log10 vapour pressure (mmHg),-5.22
same,melting point,89 °C
same,log10 BCF,4.08
same,log10 biotransformation half-life (days),1.71
Cc1ccnc(N)n1,melting point,160 °C
CC(C)=CC1C(C(=O)OCN2C(=O)C3=C(CCCC3)C2=O)C1(C)C (stereo not given),melting point,69 °C
same,ready biodegradability,not readily biodegradable
N=C(N)NC(N)=O,melting point,105 °C
O=C(O)CCCCCCCCCCCCCCCO,melting point,98 °C
CCCCCCCCCCN,boiling point,220 °C
same,log10 vapour pressure (mmHg),-1
same,melting point,17 °C
same,ready biodegradability,readily biodegradable
COCCC(C)C,boiling point,91 °C
C1C2C3C2C2C1C32 (stereo not given),boiling point,112 °C
CCCCCCCCCOC(C)=O,boiling point,210 °C
same,melting point,-26 °C
Sc1nc2ccccc2s1,log10 Koc (L/kg),2.25
same,melting point,181 °C
same,ready biodegradability,readily biodegradable
same,log10 BCF,0.9
O=C(Cl)CCCCCCCCC(=O)Cl,melting point,-2.5 °C
Nc1ccc(N)nc1,melting point,110 °C
same,ready biodegradability,readily biodegradable
CCCC(O)/C=C/C=C/C=C/C#CC#CCCCO (stereo not given),melting point,54 °C
O=C(NC(Cc1ccccc1)c1ccccc1)c1cccnc1 (stereo not given),melting point,159 °C
